What was measured:
popliteal lymph nodes = assay: MRT demonstration of lymph nodes after intravenous administration in rats; type: in vivo; conditions: i.v., 50 μmol of Gd/kg, 1.5 T, early points in time (up to 60 min p.i.)
Description: The figures show exemplary MR shots of popliteal lymph nodes at different points in time after intravenous administration of 50 μmol of Gd/kg of body weight of the substance from Example 2c) in FIG. 1, of the substance from Example 21 c) in FIG. 2, and of the substance from Example 22 c) in FIG. 3 in rats.

mice = assay: Acute toxicity after single intravenous administration in mice (exploratory); type: in vivo; conditions: injection rate 2 ml/min, observation period 7 days
Procedure: After intravenous administration of the substances of Examples 2c), 21 c) and 22 c) in mice (n=3; injection rate: 2 ml/min), the acute systemic tolerability (LD50) was determined in an exploratory manner. In each case, a number of doses were investigated using an observation period of 7 days. The average acute toxicities to be expected were 2.5 mmol of Gd/kg of body weight for the substance from Example 2c) and >10.0 mmol of Gd/kg of body weight for the substances from Examples 21c) and 22 c).

[1] = Excretion after intravenous administration in rats (ICP-AES); type: in vivo; conditions: i.v., 50 μmol of total gadolinium/kg; for Gd content, rest of body: 14 days after administration; for Gd content, faeces / Gd content, urine: up to 14 days after administration
Procedure: After intravenous administration of 50 μmol of total gadolinium/kg of body weight of substances from Examples 2c), 21 c) and 22 c) in rats (n=3), the metal content was determined fractionally up to 14 days after administration by means of atomic emission spectrometry (ICP-AES) in the excretion medium urine and faeces, and in the body (rest of body) (Table 3).

[2] = Plasma kinetics after intravenous administration in rats (ICP-AES, WinNonlin); type: in vivo; conditions: i.v., 50 μmol of total gadolinium/kg
Procedure: After intravenous administration of 50 μmol of total gadolinium/kg of body weight of the substances from Examples 2c), 21 c) and 22 c) in rats (n=3), blood samples were taken at different points in time (up to 24 h p.i.) by means of a catheter in the common carotid artery, and the metal content was determined by means of atomic emission spectrometry (ICP-AES) and converted to plasma values by means of a conversion factor (0.625). The pharmacokinetic parameters (Table 4) were calculated from the plasma concentrations by means of special software (WinNonlin).

histamine = assay: Release of histamine after single intravenous administration in rats (plasma histamine, ELISA); type: in vivo; conditions: for Histamine, baseline: before contrast agent administration; for Histamine, 10 min p.i. / Histamine, 30 min p.i. / Histamine, 60 min p.i.: i.v.
Procedure: After intravenous administration of the substances from Examples 2c) and 22 c) in rats (n=3), the release of histamine was determined at different points in time. For this, blood was taken from the carotid artery before and 10, 30 and 60 minutes after contrast agent administration, and the histamine contained in the plasma was determined by means of an ELISA system. The histamine values measured can be seen in Table 2. The histamine blank values in the conscious rats were in the normal range known from the literature.

[3] = Relaxivity: T1 and T2 relaxation times of water and plasma (bovine), NMR pulse spectrometer (Minispec PC 20); type: physicochemical; conditions: for Relaxivity R1 / Relaxivity R2: 40° C., 0.47 T
Procedure: The T1 and T2 relaxation times of water and plasma (bovine) having increasing concentrations of the substance from Example 2c) contained therein were determined at 40° C. using an NMR pulse spectrometer (Minispec PC 20) at 0.47 T (Table 1).
From the R1 relaxivities in water at high and low concentrations, a critical micelle formation concentration (CMC) of 0.02 mmol of Gd/I can be determined.

[4] = in vivo; cited from earlier work
[5] = plasma (bovine), Gd concentration 0.271-1.086 mmol/l
[6] = water, Gd concentration 0.000-0.009 mmol/l
[7] = water, Gd concentration 0.020-1.099 mmol/l

Substance	signal in the functional lymph node tissue (T1-weighted MR shots) (popliteal lymph nodes)	Gd content, rest of body [1]	Gd content, faeces [1]	Gd content, urine [1]	Vc [2]	Vd ss [2]	α-t½ [2]	β-t½ [2]	Histamine, baseline (histamine)	Histamine, 10 min p.i. (histamine)	Histamine, 30 min p.i. (histamine)	Histamine, 60 min p.i. (histamine)	further results
1,4,7-Tris(carboxylatomethyl)-10-[(3-aza-4-oxo-5-methyl-5-yl)-acid N-(1H,1H,2H,2H,4H,4H,-3,6,9,12-tetraoxaperfluorohexadecyl)-N-(2-methoxyethyl)amide]-1,4,7,10-tetraazacyclododecane, Gd complex [Example 2c]	strong signal increase	0.2 ± 0.3 % dose	92.9 ± 1.5 % dose	0.8 ± 0.2 % dose	0.05 ± 0.00 L/kg	0.08 ± 0.01 L/kg	18.7 ± 2.0 min	72 ± 12 min	3 ± 2 ng/mL	4 ± 4 ng/mL	5 ± 3 ng/mL	3 ± 2 ng/mL	acute systemic tolerability (LD50) (mice): 2.5 mmol of Gd/kg of body weight; critical micelle formation concentration (CMC) ([3]; from the R1 relaxivities in water at high and low concentrations): 0.02 mmol of Gd/I; protein bond (relaxivity in plasma greater than in water) ([3]; plasma (bovine) versus water): indicates a protein bond; Relaxivity R1 [3, 5]: 26.0 ± 0.5 L/mmol/s; Relaxivity R2 [3, 5]: 35.1 ± 0.3 L/mmol/s; Relaxivity R1 [3, 6]: 5.3 ± 0.4 L/mmol/s; Relaxivity R2 [3, 6]: 5.3 ± 1.2 L/mmol/s; Relaxivity R1 [3, 7]: 17.8 ± 0.1 L/mmol/s; Relaxivity R2 [3, 7]: 16.3 ± 0.2 L/mmol/s
1,4,7-Tris(carboxylatomethyl)-10-[(3-aza-4-oxo-5-methyl-5-yl)acid N-(1H,1H,2H,2H,4H,4H,-3,6,9,12-tetraoxaperfluorohexadecyl)-N-{2-[2-(2-methoxyethoxy)ethoxy]-ethyl}amide]1,4,7,10-tetraazacyclododecane, Gd complex [Example 22c]	strong signal increase	0.0 ± 0.0 % dose	83.4 ± 2.6 % dose	1.8 ± 0.1 % dose	0.04 ± 0.00 L/kg	0.06 ± 0.00 L/kg	23.6 ± 0.6 min	108 ± 18 min	3 ± 1 ng/mL	7 ± 3 ng/mL	4 ± 1 ng/mL	4 ± 1 ng/mL	–
1,4,7-Tris(carboxylatomethyl)-10-{(3-aza-4-oxo-5-methyl-5-yl)-acid-N-(1H,1H,2H,2H,4H,4H,-3,6,9,12-tetraoxaperfluorohexadecyl)-N-[2-(2-methoxyethoxy)ethyl]amide}-1,4,7,10-tetraazacyclododecane, Gd complex [Example 21c]	strong signal increase	0.0 ± 0.0 % dose	84.9 ± 0.7 % dose	3.8 ± 0.1 % dose	0.04 ± 0.00 L/kg	0.05 ± 0.00 L/kg	28.4 ± 1.5 min	78 ± 12 min	–	–	–	–	–
Mn-TPPS	–	–	–	–	–	–	–	–	–	–	–	–	LD50 [4]: 0.5 mmol/kg; dose at which an action commences [4]: 0.2 mmol/kg

— patent US8263040B2, “Metal chelates having a perfluorinated PEG radical, processes for their preparation, and their use” (Bayer Schering Pharma AG, priority 2006, dated 2012)
